Measured values from PubChem BioAssay AID256 (DTP/NCI, 2004).
Several values for one entry are separate records, joined by “and”; a condition that tells them apart may be missing. Identical values can stand only once. Inconclusive results and toxic doses are left out. How the source made its calls: active means survival T/C of 150% or more; inactive means T/C below 125% in these data.

Test system: CD2F1 mice, L1210 leukemia ip, survival T/C
Assay: NCI In Vivo Anticancer Drug Screen. Data for tumor model L1210 Leukemia (intraperitoneal) in CD2F1 (CDF1) mice
Conditions: higher = longer survival
Procedure, shortened: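 Tumor-bearing mice (transplanted tumor) were split into treated and vehicle control groups, and the measured endpoint of each treated group was divided by that of its vehicle controls.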

[1] = endpoint: mean survival time, dose: 100.0 mg/kg/injection, schedule: Q01DX001 (ip), vehicle: saline with Tween-80
[2] = endpoint: mean survival time, dose: 200.0 mg/kg/injection, schedule: Q01DX001 (ip), vehicle: saline with Tween-80
[3] = endpoint: mean survival time, dose: 25.0 mg/kg/injection, schedule: Q01DX009 (ip), vehicle: saline with Tween-80
[4] = endpoint: mean survival time, dose: 50.0 mg/kg/injection, schedule: Q01DX009 (ip), vehicle: saline with Tween-80
[5] = endpoint: mean survival time, dose: 100.0 mg/kg/injection, schedule: Q01DX009 (ip), vehicle: saline with Tween-80
[6] = endpoint: mean survival time, dose: 100.0 mg/kg/injection, schedule: Q04DX002 (ip), vehicle: saline with Tween-80
[7] = endpoint: mean survival time, dose: 200.0 mg/kg/injection, schedule: Q04DX002 (ip), vehicle: saline with Tween-80
[8] = endpoint: mean survival time, dose: 100.0 mg/kg/injection, schedule: Q04DX003 (ip), vehicle: saline with Tween-80
[9] = endpoint: mean survival time, dose: 200.0 mg/kg/injection, schedule: Q04DX003 (ip), vehicle: saline with Tween-80
[10] = endpoint: mean survival time, dose: 400.0 mg/kg/injection, schedule: Q04DX003 (ip), vehicle: saline with Tween-80
[11] = endpoint: mean survival time, dose: 12.5 mg/kg/injection, schedule: Q01DX009 (ip), vehicle: saline with Tween-80

Measured: T/C

O=C(O)CCC(=O)O
inactive: endpoint: mean survival time, dose: 10.0 mg/kg/injection, schedule: Q01DX009 (ip), vehicle: saline 104 % of control | endpoint: mean survival time, dose: 10.0 mg/kg/injection, schedule: Q01DX009 (ip), vehicle: water 95 % of control and 98 % of control | endpoint: mean survival time, dose: 20.0 mg/kg/injection, schedule: Q01DX001 (ip), vehicle: saline 104 % of control | endpoint: mean survival time, dose: 20.0 mg/kg/injection, schedule: Q01DX001 (ip), vehicle: water 95 % of control and 98 % of control | endpoint: mean survival time, dose: 20.0 mg/kg/injection, schedule: Q01DX009 (ip), vehicle: saline 97 % of control | endpoint: mean survival time, dose: 20.0 mg/kg/injection, schedule: Q01DX009 (ip), vehicle: water 101 % of control and 98 % of control | endpoint: mean survival time, dose: 20.0 mg/kg/injection, schedule: Q04DX003 (ip), vehicle: saline 96 % of control | endpoint: mean survival time, dose: 20.0 mg/kg/injection, schedule: Q04DX003 (ip), vehicle: water 98 % of control | endpoint: mean survival time, dose: 40.0 mg/kg/injection, schedule: Q01DX001 (ip), vehicle: saline 104 % of control | endpoint: mean survival time, dose: 40.0 mg/kg/injection, schedule: Q01DX001 (ip), vehicle: water 103 % of control and 101 % of control | endpoint: mean survival time, dose: 40.0 mg/kg/injection, schedule: Q01DX009 (ip), vehicle: saline 104 % of control | endpoint: mean survival time, dose: 40.0 mg/kg/injection, schedule: Q01DX009 (ip), vehicle: water 97 % of control and 95 % of control | endpoint: mean survival time, dose: 40.0 mg/kg/injection, schedule: Q04DX003 (ip), vehicle: saline 102 % of control | endpoint: mean survival time, dose: 40.0 mg/kg/injection, schedule: Q04DX003 (ip), vehicle: water 96 % of control | endpoint: mean survival time, dose: 80.0 mg/kg/injection, schedule: Q01DX001 (ip), vehicle: saline 103 % of control | endpoint: mean survival time, dose: 80.0 mg/kg/injection, schedule: Q01DX001 (ip), vehicle: water 97 % of control | endpoint: mean survival time, dose: 80.0 mg/kg/injection, schedule: Q01DX009 (ip), vehicle: saline 104 % of control | endpoint: mean survival time, dose: 80.0 mg/kg/injection, schedule: Q01DX009 (ip), vehicle: water 95 % of control and 97 % of control | endpoint: mean survival time, dose: 80.0 mg/kg/injection, schedule: Q04DX003 (ip), vehicle: saline 98 % of control | endpoint: mean survival time, dose: 80.0 mg/kg/injection, schedule: Q04DX003 (ip), vehicle: water 91 % of control and 96 % of control | endpoint: mean survival time, dose: 160.0 mg/kg/injection, schedule: Q01DX001 (ip), vehicle: saline 101 % of control | endpoint: mean survival time, dose: 160.0 mg/kg/injection, schedule: Q01DX001 (ip), vehicle: water 98 % of control and 93 % of control | endpoint: mean survival time, dose: 160.0 mg/kg/injection, schedule: Q01DX009 (ip), vehicle: saline 98 % of control | endpoint: mean survival time, dose: 160.0 mg/kg/injection, schedule: Q01DX009 (ip), vehicle: water 98 % of control and 90 % of control | endpoint: mean survival time, dose: 160.0 mg/kg/injection, schedule: Q04DX003 (ip), vehicle: saline 101 % of control | endpoint: mean survival time, dose: 160.0 mg/kg/injection, schedule: Q04DX003 (ip), vehicle: water 98 % of control and 93 % of control | endpoint: mean survival time, dose: 320.0 mg/kg/injection, schedule: Q01DX001 (ip), vehicle: saline 106 % of control | endpoint: mean survival time, dose: 320.0 mg/kg/injection, schedule: Q01DX001 (ip), vehicle: water 101 % of control | endpoint: mean survival time, dose: 320.0 mg/kg/injection, schedule: Q04DX003 (ip), vehicle: saline 98 % of control | endpoint: mean survival time, dose: 320.0 mg/kg/injection, schedule: Q04DX003 (ip), vehicle: water 87 % of control and 98 % of control | endpoint: mean survival time, dose: 640.0 mg/kg/injection, schedule: Q01DX001 (ip), vehicle: saline 103 % of control | endpoint: mean survival time, dose: 640.0 mg/kg/injection, schedule: Q01DX001 (ip), vehicle: water 101 % of control

O=C(O)CCn1cccc1
inactive: [1] 91 % of control | [2] 89 % of control

CCOC(=O)c1cc2ccccc2oc1=O
inactive: [3] 100 % of control | [4] 97 % of control | [5] 109 % of control

CCN(CC)Cc1cn(C2CC(O)C(CO)O2)c(=O)[nH]c1=O (centres undefined)
inactive: endpoint: mean survival time, dose: 12.5 mg/kg/injection, schedule: Q01DX005 (ip), vehicle: water 100 % of control | endpoint: mean survival time, dose: 25.0 mg/kg/injection, schedule: Q01DX005 (ip), vehicle: water 104 % of control | endpoint: mean survival time, dose: 50.0 mg/kg/injection, schedule: Q01DX005 (ip), vehicle: water 91 % of control | endpoint: mean survival time, dose: 100.0 mg/kg/injection, schedule: Q01DX005 (ip), vehicle: water 100 % of control | endpoint: mean survival time, dose: 200.0 mg/kg/injection, schedule: Q01DX005 (ip), vehicle: water 98 % of control

CCN(CC)C(=O)Nc1cc(Cl)ccc1Cl
inactive: [6] 97 % of control | [7] 101 % of control

O=C1c2ccccc2C(=O)N1CCO
inactive: [8] 106 % of control | [9] 108 % of control | [10] 110 % of control

COC1=CC(=O)C(C2CC(=O)c3c(O)cc(O)cc3O2)=CC1=O (centres undefined)
inactive: [5] 101 % of control | [8] 100 % of control | [9] 100 % of control | [10] 98 % of control

Cn1c(-c2ccc(/C=N\N3CCN(/N=C/c4ccc(-c5c[n+]6ccsc6n5C)cc4)CC3)cc2)c[n+]2ccsc12
inactive: endpoint: median survival time, dose: 0.75 mg/kg/injection, schedule: Q01DX005 (ip), vehicle: saline with Tween-80 113 % of control | endpoint: median survival time, dose: 1.5 mg/kg/injection, schedule: Q01DX005 (ip), vehicle: saline with Tween-80 115 % of control | endpoint: median survival time, dose: 3.0 mg/kg/injection, schedule: Q01DX005 (ip), vehicle: saline with Tween-80 116 % of control

c1ccc2c(c1)C1c3ccccc3C2c2ccccc21
inactive: [8] 95 % of control | [9] 100 % of control | [10] 94 % of control

CCC[CH2][Sn]([CH2]CC)([CH2]CCC)[O]C(=O)c1ccccc1
inactive: endpoint: mean survival time, dose: 0.78 mg/kg/injection, schedule: Q01DX009 (ip), vehicle: saline with Tween-80 104 % of control | endpoint: mean survival time, dose: 1.56 mg/kg/injection, schedule: Q01DX009 (ip), vehicle: saline with Tween-80 107 % of control

c1ccc2c3c(ccc2c1)OCN(C12CC4CC(CC(C4)C1)C2)C3
inactive: [5] 96 % of control | endpoint: mean survival time, dose: 200.0 mg/kg/injection, schedule: Q01DX009 (ip), vehicle: saline with Tween-80 102 % of control | endpoint: mean survival time, dose: 400.0 mg/kg/injection, schedule: Q01DX009 (ip), vehicle: saline with Tween-80 90 % of control

O=C(O)C[N-]CC[N-]CC(=O)O.[Cl][Pt+2][Cl]
inactive: endpoint: mean survival time, dose: 6.25 mg/kg/injection, schedule: Q04DX003 (ip), vehicle: other 101 % of control | endpoint: mean survival time, dose: 12.5 mg/kg/injection, schedule: Q04DX003 (ip), vehicle: other 100 % of control | endpoint: mean survival time, dose: 25.0 mg/kg/injection, schedule: Q04DX003 (ip), vehicle: other 104 % of control | endpoint: mean survival time, dose: 50.0 mg/kg/injection, schedule: Q04DX003 (ip), vehicle: other 109 % of control

N#CCCSc1ccccc1
inactive: [8] 90 % of control | [9] 102 % of control | [10] 96 % of control

CC(=O)OC1(C)CC(C)(C)N=[N+]1[O-] (centres undefined)
inactive: endpoint: mean survival time, dose: 25.0 mg/kg/injection, schedule: Q01DX009 (ip), vehicle: Klucel (hydroxypropylcellulose) (HPC) 96 % of control | endpoint: mean survival time, dose: 50.0 mg/kg/injection, schedule: Q01DX009 (ip), vehicle: Klucel (hydroxypropylcellulose) (HPC) 101 % of control | endpoint: mean survival time, dose: 100.0 mg/kg/injection, schedule: Q01DX009 (ip), vehicle: Klucel (hydroxypropylcellulose) (HPC) 101 % of control | endpoint: mean survival time, dose: 200.0 mg/kg/injection, schedule: Q01DX009 (ip), vehicle: Klucel (hydroxypropylcellulose) (HPC) 105 % of control

CC(C)OC(=O)Nc1ccc(F)cc1F
inactive: [8] 96 % of control | [9] 102 % of control | [10] 98 % of control

NCC(=O)Nc1ccccc1
inactive: endpoint: mean survival time, dose: 100.0 mg/kg/injection, schedule: Q01DX009 (ip), vehicle: saline 103 % of control | endpoint: mean survival time, dose: 200.0 mg/kg/injection, schedule: Q01DX009 (ip), vehicle: saline 113 % of control | endpoint: mean survival time, dose: 400.0 mg/kg/injection, schedule: Q01DX009 (ip), vehicle: saline 97 % of control

N#[N+]c1c(O)ccc2ccccc12
inactive: [6] 107 % of control | [7] 103 % of control | endpoint: mean survival time, dose: 400.0 mg/kg/injection, schedule: Q04DX002 (ip), vehicle: saline with Tween-80 100 % of control

CC(O)CC1CC(=O)CCC1=O (centres undefined)
inactive: [1] 98 % of control | [2] 103 % of control | endpoint: mean survival time, dose: 400.0 mg/kg/injection, schedule: Q01DX001 (ip), vehicle: saline with Tween-80 95 % of control

CN(C)CCCN=Cc1ccc(O)cc1O.CN(C)CCCN=Cc1ccc(O)cc1O.[Ni+2]
inactive: [11] 94 % of control | [3] 93 % of control | [4] 94 % of control

NC(=O)c1c(F)c(F)c(Oc2c(F)c(F)c(Oc3c(F)c(F)c(C(N)=O)c(F)c3F)c(F)c2F)c(F)c1F
inactive: [11] 103 % of control | endpoint: mean survival time, dose: 12.5 mg/kg/injection, schedule: Q04DX003 (ip), vehicle: saline with Tween-80 101 % of control | [3] 100 % of control | endpoint: mean survival time, dose: 25.0 mg/kg/injection, schedule: Q04DX003 (ip), vehicle: saline with Tween-80 101 % of control | [4] 101 % of control | endpoint: mean survival time, dose: 50.0 mg/kg/injection, schedule: Q04DX003 (ip), vehicle: saline with Tween-80 98 % of control
